In ChEMBL document CHEMBL1201862, “PubChem BioAssay data set” (2004):
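96-well plates; 48 h exposure; 5 concentrations. Endpoints by linear interpolation between flanking doses. Not reached: highest tested concentration assigned. Here, GI50 denotes the concentration required for 50% inhibition of growth.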 The source made the active and inactive calls. Rule as the data show it: active = GI50 up to about 1.1 µM and inactive = higher.

Assays:
Experiment in all cases: DTP human tumour cell line panel, 48 h
786-0 = test system: 786-0
A498 = test system: A498
A549 = test system: A549
ACHN = test system: ACHN
BT-549 = test system: BT-549
CAKI-1 = test system: CAKI-1
CCRF-CEM = test system: CCRF-CEM
COLO 205 = test system: COLO 205
DLD-1 = test system: DLD-1
DMS-114 = test system: DMS-114
DMS-273 = test system: DMS-273
DU-145 = test system: DU-145
EKVX = test system: EKVX
HCC 2998 = test system: HCC 2998
HCT-116 = test system: HCT-116
HCT-15 = test system: HCT-15
HL-60 = test system: HL-60
HOP-18 = test system: HOP-18
HOP-62 = test system: HOP-62
HOP-92 = test system: HOP-92
HT-29 = test system: HT-29
IGROV-1 = test system: IGROV-1
K562 = test system: K562
KM-20L2 = test system: KM-20L2
KM12 = test system: KM12
LOX IMVI = test system: LOX IMVI
LXFL 529 = test system: LXFL 529
M14 = test system: M14
M19-MEL = test system: M19-MEL
MCF7 = test system: MCF7
MDA-MB-231 = test system: MDA-MB-231
MDA-MB-435 = test system: MDA-MB-435
MDA-N = test system: MDA-N
MOLT-4 = test system: MOLT-4
Malme-3M = test system: Malme-3M
NCI-H226 = test system: NCI-H226
NCI-H23 = test system: NCI-H23
NCI-H460 = test system: NCI-H460
NCI-H522 = test system: NCI-H522
OVCAR-3 = test system: OVCAR-3
OVCAR-4 = test system: OVCAR-4
OVCAR-5 = test system: OVCAR-5
OVCAR-8 = test system: OVCAR-8
PC-3 = test system: PC-3
RPMI-8226 = test system: RPMI-8226
RXF 393 = test system: RXF 393
SF-268 = test system: SF-268
SF-295 = test system: SF-295
SF-539 = test system: SF-539
SK-MEL-28 = test system: SK-MEL-28
SK-MEL-2 = test system: SK-MEL-2
SK-MEL-5 = test system: SK-MEL-5
SK-OV-3 = test system: SK-OV-3
SN12C = test system: SN12C
SNB-19 = test system: SNB-19
SNB-75 = test system: SNB-75
SNB-78 = test system: SNB-78
SR = test system: SR
SW-620 = test system: SW-620
T47D = test system: T47D
TK-10 = test system: TK-10
U-251 = test system: U-251
UACC-257 = test system: UACC-257
UACC-62 = test system: UACC-62
UO-31 = test system: UO-31
XF498 = test system: XF498
RXF 631 = test system: RXF 631

In the case of `COc1cccc2c1C(=O)c1c(O)c3c(c(O)c1C2=O)C[C@@](O)(C(C)=O)C[C@@H]3OC1OC(C)C(O)C(N)C1Br` (stereo partly specified), the GI50 (786-0) is reported as 40.4 nM (active), the GI50 (A498) is reported as 133 nM (active) and the GI50 (A549) is reported as 20.2 nM (active). For the same compound, the GI50 (ACHN) was 21.3 nM (active), the GI50 (BT-549) was 269 nM (active) and the GI50 (CAKI-1) was 13.9 nM (active). The GI50 (CCRF-CEM) was 4.14 nM (active), the GI50 (COLO 205) was 418 nM (active) and the GI50 (DLD-1) was 25.9 nM (active). The GI50 (DMS-114) was 31.6 nM (active), the GI50 (DMS-273) was 7.8 nM (active) and the GI50 (DU-145) was 47.5 nM (active). The GI50 (EKVX) was 805 nM (active), the GI50 (HCC 2998) was 111 nM (active) and the GI50 (HCT-116) was 7.92 nM (active). The GI50 (HCT-15) was 132 nM, the GI50 (HL-60) was 9.71 nM (active) and the GI50 (HOP-18) was 40.4 nM (active). The GI50 (HOP-62) was 14.7 nM (active), the GI50 (HOP-92) was 48.6 nM (active) and the GI50 (HT-29) was 152 nM (active). For the same compound, the GI50 (IGROV-1) was 266 nM (active), the GI50 (K562) was 49.5 nM (active) and the GI50 (KM-20L2) was 232 nM (active). The GI50 (KM12) was 140 nM (active), the GI50 (LOX IMVI) was 20.8 nM (active) and the GI50 (LXFL 529) was 60.1 nM (active). For the same compound, the GI50 (M14) was 68.1 nM (active), the GI50 (M19-MEL) was 116 nM (active) and the GI50 (MCF7) was 3.85 nM (active). The GI50 (MDA-MB-231) was 233 nM (active), the GI50 (MDA-MB-435) was 220 nM (active) and the GI50 (MDA-N) was 208 nM (active). The GI50 (MOLT-4) was 1 nM (active), the GI50 (Malme-3M) was 76.9 nM (active) and the GI50 (NCI-H226) was 16.5 nM (active). For the same compound, the GI50 (NCI-H23) was 27 nM (active), the GI50 (NCI-H460) was 1 nM (active) and the GI50 (NCI-H522) was 65.2 nM (active). The GI50 (OVCAR-3) was 136 nM (active), the GI50 (OVCAR-4) was 185 nM (active) and the GI50 (OVCAR-5) was 280 nM (active). For the same compound, the GI50 (OVCAR-8) was 55.7 nM (active), the GI50 (PC-3) was 138 nM (active) and the GI50 (RPMI-8226) was 15.6 nM (active). For the same compound, the GI50 (RXF 393) was 213 nM (active), the GI50 (SF-268) was 101 nM (active) and the GI50 (SF-295) was 44.2 nM (active). For the same compound, the GI50 (SF-539) was 58.3 nM (active), the GI50 (SK-MEL-28) was 318 nM (active) and the GI50 (SK-MEL-2) was 267 nM (active). The GI50 (SK-MEL-5) was 68.9 nM (active), the GI50 (SK-OV-3) was 45 nM (active) and the GI50 (SN12C) was 28.1 nM (active). For the same compound, the GI50 (SNB-19) was 41.2 nM (active), the GI50 (SNB-75) was 2.9 nM (active) and the GI50 (SNB-78) was 105 nM (active). For the same compound, the GI50 (SR) was 4.97 nM (active), the GI50 (SW-620) was 17.7 nM (active) and the GI50 (T47D) was 58.5 nM (active). For the same compound, the GI50 (TK-10) was 158 nM (active), the GI50 (U-251) was 29.5 nM (active) and the GI50 (UACC-257) was 155 nM (active). The GI50 (UACC-62) was 105 nM (active), the GI50 (UO-31) was 95.3 nM (active) and the GI50 (XF498) was 129 nM (active).
For `COc1ccc(Cc2cc3c(cc2OCC(=O)O)OCO3)cc1`, the GI50 (786-0) was > 100000 nM (inactive), the GI50 (A498) was > 100000 nM (inactive) and the GI50 (A549) was > 100000 nM (inactive). For the same compound, the GI50 (ACHN) was > 100000 nM (inactive), the GI50 (CAKI-1) was > 100000 nM (inactive) and the GI50 (CCRF-CEM) was > 100000 nM (inactive). The GI50 (COLO 205) was > 100000 nM (inactive), the GI50 (DLD-1) was > 100000 nM (inactive) and the GI50 (DMS-114) was > 100000 nM (inactive). For the same compound, the GI50 (EKVX) was > 100000 nM (inactive), the GI50 (HCC 2998) was > 100000 nM (inactive) and the GI50 (HCT-116) was > 100000 nM (inactive). The GI50 (HL-60) was > 100000 nM (inactive), the GI50 (HOP-62) was > 100000 nM (inactive) and the GI50 (HOP-92) was > 100000 nM (inactive). For the same compound, the GI50 (HT-29) was > 100000 nM (inactive), the GI50 (IGROV-1) was > 100000 nM (inactive) and the GI50 (K562) was > 100000 nM (inactive). For the same compound, the GI50 (KM-20L2) was > 100000 nM (inactive), the GI50 (KM12) was > 100000 nM (inactive) and the GI50 (LOX IMVI) was > 100000 nM (inactive). For the same compound, the GI50 (M14) was > 100000 nM (inactive), the GI50 (M19-MEL) was > 100000 nM (inactive) and the GI50 (MOLT-4) was > 100000 nM (inactive). For the same compound, the GI50 (Malme-3M) was > 100000 nM (inactive), the GI50 (NCI-H23) was > 100000 nM (inactive) and the GI50 (NCI-H460) was > 100000 nM (inactive). For the same compound, the GI50 (NCI-H522) was > 100000 nM (inactive), the GI50 (OVCAR-3) was > 100000 nM (inactive) and the GI50 (OVCAR-4) was > 100000 nM (inactive). For the same compound, the GI50 (OVCAR-5) was > 100000 nM (inactive), the GI50 (OVCAR-8) was > 100000 nM (inactive) and the GI50 (RPMI-8226) was > 100000 nM (inactive). The GI50 (RXF 393) was > 100000 nM (inactive), the GI50 (RXF 631) was > 100000 nM (inactive) and the GI50 (SF-268) was > 100000 nM (inactive). For the same compound, the GI50 (SF-295) was > 100000 nM (inactive), the GI50 (SF-539) was > 100000 nM (inactive) and the GI50 (SK-MEL-28) was > 100000 nM (inactive). The GI50 (SK-MEL-2) was > 100000 nM (inactive), the GI50 (SK-MEL-5) was > 100000 nM (inactive) and the GI50 (SK-OV-3) was > 100000 nM (inactive). For the same compound, the GI50 (SN12C) was > 100000 nM (inactive), the GI50 (SNB-19) was > 100000 nM (inactive) and the GI50 (SR) was > 100000 nM (inactive). For the same compound, the GI50 (SW-620) was > 100000 nM (inactive), the GI50 (TK-10) was > 100000 nM (inactive) and the GI50 (UACC-257) was > 100000 nM (inactive). For the same compound, the GI50 (UACC-62) was > 100000 nM (inactive) and the GI50 (UO-31) was > 100000 nM (inactive).
